The results in this text go back to publication PMC8585947, “Structure of Escherichia coli cytochrome bd-II type oxidase with bound aurachin D” (Nature Communications, 2021).

For assay [1], the target named is cytochrome bd-II oxidase subunit AppB (Escherichia coli, UniProt P26458).
Assay [2] addresses T1, cytochrome bd-II oxidase subunit AppC (Escherichia coli, UniProt P26459).
T1 construct: bd-II oxidase (AppC, AppB, AppX), C-terminal His-tag on AppC; with AppB, AppX
The assay is described as follows: duroquinol:O2 oxidoreductase activity of isolated bd-II, Clark-type oxygen electrode. The format is biochemical.

Assay [3] deals with T1, cytochrome bd-II oxidase subunit AppC. The assay is described as follows: duroquinol:O2 oxidoreductase inhibition (Clark electrode). The format is biochemical.
For assay [4], the target named is cytochrome bd-II oxidase subunit AppC (Escherichia coli, UniProt P26459, D239N). The assay is described as follows: biochemical.
Chain of cytochrome bd-II oxidase subunit AppC (Escherichia coli, UniProt P26459, D239N) (P26459 whole entry, stated change not applied): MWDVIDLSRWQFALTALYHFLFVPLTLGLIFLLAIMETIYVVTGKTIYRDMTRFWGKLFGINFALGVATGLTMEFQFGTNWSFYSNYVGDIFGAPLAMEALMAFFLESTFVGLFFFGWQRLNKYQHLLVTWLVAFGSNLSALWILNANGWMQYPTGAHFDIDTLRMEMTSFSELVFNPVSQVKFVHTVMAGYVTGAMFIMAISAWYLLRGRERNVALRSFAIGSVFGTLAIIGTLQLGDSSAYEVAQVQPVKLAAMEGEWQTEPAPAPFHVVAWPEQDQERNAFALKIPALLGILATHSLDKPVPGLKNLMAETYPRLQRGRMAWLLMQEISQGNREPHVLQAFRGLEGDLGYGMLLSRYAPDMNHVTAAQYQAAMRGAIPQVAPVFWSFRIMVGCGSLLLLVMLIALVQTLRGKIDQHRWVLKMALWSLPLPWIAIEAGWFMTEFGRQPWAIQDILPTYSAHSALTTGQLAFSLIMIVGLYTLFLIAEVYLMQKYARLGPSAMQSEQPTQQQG
Chain of cytochrome bd-II oxidase subunit AppC (Escherichia coli, UniProt P26459, D239N) (P24244 whole entry, further chain): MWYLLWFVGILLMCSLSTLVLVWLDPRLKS
Chain of cytochrome bd-II oxidase subunit AppC (Escherichia coli, UniProt P26459, D239N) (P26458 whole entry, further chain): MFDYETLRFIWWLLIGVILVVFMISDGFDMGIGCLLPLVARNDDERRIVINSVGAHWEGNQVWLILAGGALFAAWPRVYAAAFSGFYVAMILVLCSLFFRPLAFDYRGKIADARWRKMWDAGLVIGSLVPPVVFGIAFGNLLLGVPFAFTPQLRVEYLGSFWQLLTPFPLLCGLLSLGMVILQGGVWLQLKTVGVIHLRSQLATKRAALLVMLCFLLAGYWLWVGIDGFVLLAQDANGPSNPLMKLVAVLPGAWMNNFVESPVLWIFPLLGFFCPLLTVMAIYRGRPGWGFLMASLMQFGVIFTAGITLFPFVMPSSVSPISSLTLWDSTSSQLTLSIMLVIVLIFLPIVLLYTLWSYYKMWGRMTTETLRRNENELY

T1 sequence (P24244 whole entry): as the sequence (P24244 whole entry, further chain) above
T1 sequence (P26458 whole entry, further chain): as the sequence (P26458 whole entry, further chain) above
T1 sequence (P26459 whole entry): as the sequence (P26459 whole entry, stated change not applied) above
Chain of cytochrome bd-II oxidase subunit AppB (P26458 whole entry): as the sequence (P26458 whole entry, further chain) above
Chain of cytochrome bd-II oxidase subunit AppB (P26459 whole entry partner): as the sequence (P26459 whole entry, stated change not applied) above
Chain of cytochrome bd-II oxidase subunit AppB (P24244 whole entry partner): as the sequence (P24244 whole entry, further chain) above

Consider `COC1=C(OC)C(=O)C(C/C=C(\C)CC/C=C(\C)CC/C=C(\C)CC/C=C(\C)CC/C=C(\C)CC/C=C(\C)CC/C=C(\C)CCC=C(C)C)=C(C)C1=O` [ubiquinone-8], for which the “cryo-EM structure at 3.0 Å” value in assay [1] is “cleft towards the periplasmic space filled with an extended electron density that was perfectly fitted as ubiquinone-8”.

`CC(C)=CCC/C(C)=C/CC/C(C)=C/Cc1c(C)n(O)c2ccccc2c1=O` [aurachin C] showed an IC50 in assay [2] of 7.1 nM.

As to `CC(C)=CCC/C(C)=C/CC/C(C)=C\Cc1c(C)[nH]c2ccccc2c1=O` [aurachin D], the IC50 in assay [3] turned out to be 11.1 nM; in assay [4], 60.7 nM.

In general, IC50 refers to the concentration needed to halve the response being measured. A high value points to weaker potency in that assay.
